The values that follow come from the Kinase Knowledgebase extract (Sharma et al. 2016).

Values joined by “and” are separate entries in the source; they are usually repeats but may differ in a detail not shown here. Identical values can stand only once. Bounds are passed on as bounds.

In this experiment the target is PIK3CD (Human) (UniProt O00329). The experiment can be described thus: Enzyme Assay.
PIK3CD (Human), sequence (O00329 whole entry, looked up): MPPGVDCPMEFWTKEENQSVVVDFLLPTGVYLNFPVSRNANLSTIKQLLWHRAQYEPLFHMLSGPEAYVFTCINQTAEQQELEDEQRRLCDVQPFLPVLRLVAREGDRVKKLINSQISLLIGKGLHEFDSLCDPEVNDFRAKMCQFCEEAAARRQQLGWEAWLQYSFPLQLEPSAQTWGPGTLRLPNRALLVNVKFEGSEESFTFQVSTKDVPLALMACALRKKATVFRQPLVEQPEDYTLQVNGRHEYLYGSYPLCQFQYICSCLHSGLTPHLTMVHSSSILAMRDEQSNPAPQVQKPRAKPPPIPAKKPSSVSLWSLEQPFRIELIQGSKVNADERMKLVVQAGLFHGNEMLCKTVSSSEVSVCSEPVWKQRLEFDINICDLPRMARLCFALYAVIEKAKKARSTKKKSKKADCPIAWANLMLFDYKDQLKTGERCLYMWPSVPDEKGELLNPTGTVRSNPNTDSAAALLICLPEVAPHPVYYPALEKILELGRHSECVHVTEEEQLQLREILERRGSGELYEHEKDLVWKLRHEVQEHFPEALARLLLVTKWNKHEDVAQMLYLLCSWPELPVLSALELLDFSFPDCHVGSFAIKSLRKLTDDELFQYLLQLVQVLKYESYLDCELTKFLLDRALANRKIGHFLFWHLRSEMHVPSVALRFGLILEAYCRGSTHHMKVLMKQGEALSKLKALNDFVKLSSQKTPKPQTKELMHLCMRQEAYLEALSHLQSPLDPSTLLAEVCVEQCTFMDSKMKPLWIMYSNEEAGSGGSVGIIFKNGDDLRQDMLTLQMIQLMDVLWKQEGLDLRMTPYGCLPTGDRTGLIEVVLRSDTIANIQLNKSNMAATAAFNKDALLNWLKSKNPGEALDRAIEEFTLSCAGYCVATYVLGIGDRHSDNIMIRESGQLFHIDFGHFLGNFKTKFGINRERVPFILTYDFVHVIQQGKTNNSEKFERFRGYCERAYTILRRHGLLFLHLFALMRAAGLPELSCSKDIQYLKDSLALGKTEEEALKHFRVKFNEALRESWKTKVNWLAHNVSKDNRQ
Compound `CCC(=O)N1CC[C@H](Oc2ncnc3c2nc(-c2ccc4cc[nH]c4c2)n3C)C1` gave an IC50 of 120 nM. In the case of `CCn1c(-c2cnc(C)nc2)nc2c(O[C@H]3CCN(C(=O)C=C(C)C)C3)ncnc21` it was 4.4 nM; in that of `CCn1ncc(-c2nc3c(O[C@H]4CCN(c5ncnc6sc(C)cc56)C4)ncnc3n2C)c1C`, 5.2 nM; in that of `CCn1ncc(-c2nc3c(O[C@H]4CCN(C(=O)C5CC5)C4)ncnc3n2C)c1C`, 6.3 nM. As to `CCn1c(-c2cnc(OC)c(F)c2)nc2c(O[C@H]3CCN(C(=O)c4cncn4C)C3)ncnc21`, the IC50 amounted to 1.5 nM.

For the compound `CCn1c(-c2cnc(C)nc2)nc2c(O[C@H]3C[C@@H](NC(=O)OC(C)(C)C)C3)ncnc21`, the IC50 is 96 nM and 220 nM. In the case of `CCn1ncc(-c2nc3c(O[C@H]4CCN(c5nncc6ccccc56)C4)ncnc3n2C)c1C`, the IC50 was found to be 17 nM.

On to `CCn1ncc(-c2nc3c(O[C@H]4CCN(c5cc(C(F)(F)F)ccn5)C4)ncnc3n2C)c1C`, for which the IC50 was 37 nM.

Compound `CCn1c(-c2cnc(C)nc2)nc2c(O[C@H]3CCN(c4cccnc4)C3)ncnc21` yielded an IC50 of 10 nM. On to `CCn1ncc(-c2nc3c(O[C@@H]4CC[C@H](NC(=O)C5CCOCC5)C4)ncnc3n2C)c1C`, for which the IC50 worked out at 290 nM. The result for `CCn1c(-c2cnc(C)nc2)nc2c(O[C@H]3CCN(C(=O)N4CCCCC4)C3)ncnc21` reads 21 nM; that for `CCn1c(-c2cnc(C)nc2)nc2c(O[C@H]3CCN(C(=O)C4CCOC4)C3)ncnc21` (stereo partly specified), 5.8 nM; that for `CCn1c(-c2cnc(N(C)C)nc2)nc2c(O[C@H]3CCN(C(=O)C4CC4)C3)ncnc21`, 23 nM. The result for `Cn1c(-c2ccc(-n3cccn3)cc2)nc2c(O[C@H]3CCN(C(=O)OC(C)(C)C)C3)ncnc21` reads 30 nM. The result for `CCn1c(-c2cnc(C)nc2)nc2c(OC3(C)CCN(C(=O)C4CC4)C3)ncnc21` (stereo unspecified) reads 8.7 nM. Consider `CCCn1c(-c2cnc(C)nc2)nc2c(O[C@H]3CCN(C(=O)CC)C3)ncnc21`, for which the 50% inhibitory concentration (IC50) came out at 130 nM.

For `Cc1ncc(-c2nc3c(O[C@H]4CCN(C(=O)OC(C)(C)C)C4)ncnc3n2C)cn1`, the half-inhibitory concentration (IC50) amounted to 99 nM. In the case of `CCn1ncc(-c2nc3c(O[C@H]4CCN(C(=O)C5CCOCC5)C4)ncnc3n2CC)c1C` it was < 1 nM; in that of `CCn1ncc(-c2nc3c(O[C@H]4CCN(C(=O)c5c(C)noc5C)C4)ncnc3n2C)c1C`, 88 nM. In the case of `CCn1c(N2CCC(c3ccccc3)CC2)nc2c(O[C@H]3CCN(C(=O)OC(C)(C)C)C3)ncnc21` it was 120 nM; in that of `CCC(=O)N1CC[C@H](Oc2ncnc3c2nc(-c2cc(O)cc(F)c2)n3C)C1`, 3.8 nM.

The compound `CCn1ncc(-c2nc3c(O[C@H]4CCN(C(=O)N[C@H](C)c5ccccc5)C4)ncnc3n2C)c1C` showed an IC50 of 630 nM. In the case of `CCn1c(-c2cnc(OC)c(C#N)c2)nc2c(O[C@H]3CCN(C(=O)C4CC4)C3)ncnc21` it was 2.4 nM; in that of `CCn1c(-c2cnc(OC)c(F)c2)nc2c(O[C@H]3CCN(C(=O)C4CC(F)(F)C4)C3)ncnc21`, < 1 nM; in that of `CCn1ncc(-c2nc3c(O[C@H]4CCN(c5ncnc6ccsc56)C4)ncnc3n2C)c1C`, 12 nM.

`CCn1ncc(-c2nc3c(O[C@H]4CCN(C(=O)OCC(C)C)C4)ncnc3n2C)c1C`: the IC50 turned out to be 17 nM.

`CCn1ncc(-c2nc3c(O[C@H]4CCN(C(=O)c5ccn(C)n5)C4)ncnc3n2C)c1C` yielded an IC50 of 2.2 nM. The result for `Cn1c(-c2ccc(N3CCCC3)nc2)nc2c(O[C@H]3CCN(C(=O)OC(C)(C)C)C3)ncnc21` reads 590 nM; that for `CCC(=O)N1CC[C@H](Oc2ncnc3c2nc(-c2ccc4cn[nH]c4c2)n3C)C1`, 7.2 nM; that for `CCC(=O)N1CC[C@H](Oc2ncnc3c2nc(-c2cnc(OC)c(C)c2)n3C)C1`, 2.1 nM. The result for `CCn1c(-c2cnc(C)nc2)nc2c(O[C@H]3CCN(C(=O)N4CC(F)C4)C3)ncnc21` reads 5.1 nM; that for `Cn1c(-c2cnc(C(C)(C)C)s2)nc2c(O[C@H]3CCN(C(=O)OC(C)(C)C)C3)ncnc21`, 6.9 nM; that for `CCOC(=O)N1CC[C@H](Oc2ncnc3c2nc(-c2cnn(CC)c2C)n3C)C1`, 33 nM. The result for `CCn1ncc(-c2nc3c(O[C@H]4CCN(C(=O)c5nc(C)oc5C)C4)ncnc3n2C)c1C` reads 7.2 nM.

`CCn1ncc(-c2nc3c(O[C@H]4CCN(C(=O)c5cn(C)nc5C(F)(F)F)C4)ncnc3n2C)c1C`: the IC50 worked out at 68 nM.

`Cc1n[nH]cc1-c1nc2c(O[C@H]3CCN(C(=O)OC(C)(C)C)C3)ncnc2n1C` gave an IC50 of 13 nM. The result for `CCn1c(-c2cnc(C)nc2)nc2c(O[C@H]3CCN(C(=O)C4CC4)[C@@H]3C)ncnc21` reads 2.8 nM; that for `CCn1c(-c2cnn3c2CCCC3)nc2c(O[C@H]3CCN(C(=O)C4CC4)C3)ncnc21`, < 1 nM; that for `CCn1c(-c2ccc(OC(F)(F)F)cc2)nc2c(O[C@H]3CCN(C(=O)C4CC4)C3)ncnc21`, 9.3 nM. In the case of `CCn1ncc(-c2nc3c(O[C@H]4CC[C@H](NC(=O)OC(C)(C)C)C4)ncnc3n2C)c1C` it was 140 nM. In the case of `CCn1ncc(-c2nc3c(OC4CCN(C(=O)C5CCOCC5)CC4)ncnc3n2C)c1C` it was 1100 nM.

For orientation: IC50 means the point on the concentration scale where inhibition reaches its midpoint. Lower therefore signals greater potency in that assay.
